From PubChem BioAssay AID1241 (SRMLSC, 2008)

Test: compounds inducing NF-kB luciferase expression – cell-based, SH-SY5Y, dose response (AID 1241)
Conditions: SH-SY5Y NF-kB promoter luciferase reporter, fold induction
`CC(C)c1ccc(/C=C/c2ccc(=O)n(C)n2)cc1` gave an EC50 of 8700 nM.
Compound `C/C(=N\N1C(=O)c2ccccc2NC1c1ccco1)c1ccccc1O` (stereo unspecified) has an EC50 of 2500 nM.
With `COc1ccc2nc(NC(=O)c3ccoc3C)sc2c1` the EC50 was 3990 nM.
`C/C(=N\NC(=O)c1ccc(Cl)cc1)c1cccs1` gave an EC50 of 1400 nM.
`O=C1C(c2cc(=O)c3ccccc3[nH]2)=C(O)c2ccccc21` gave an EC50 of 4980 nM.
`O=C(Nc1ccc2ccccc2c1)c1onc2c1CCCC2` showed an EC50 of 632 nM.
Work on `Cc1nn(-c2ccccc2Cl)c(Cl)c1/C=N/Nc1cccc(C(=O)O)c1` yielded an EC50 of 4370 nM.
In the case of `COc1ccc(CSc2nc3ccccc3[nH]2)cc1`, the EC50 is reported as 4290 nM.
For `Nc1nn(-c2cccc(F)n2)cc1-c1ccccc1`, the EC50 was 26000 nM.
For `O=[N+]([O-])c1ccccc1OCc1nc(-c2cccs2)no1`, the EC50 was 1720 nM.
Work on `CC(/C=N/NC(=O)c1ccco1)=C\c1ccccc1` yielded an EC50 of 4660 nM.
Work on `COC(=O)c1ccc(NC(=O)C(=O)c2cccn2C)cc1` yielded an EC50 of 1710 nM.
For `COC(=O)Cc1ccc2sc(-c3ccccc3)nc2c1`, the EC50 was 702 nM.
`CC(=O)Nc1ccc(-c2cc3ccccc3o2)cc1` gave an EC50 of 5560 nM.
Compound `O=C(/C=C/c1ccccc1Cl)Nc1cccc(O)c1` has an EC50 of 1120 nM.
With `O=C(N/N=C/C(Br)=C/c1ccccc1)c1n[nH]c2c1CCC2` the EC50 was 659 nM.
Compound `COc1ccc2nc3oc(C(=O)N4CCCCC4)cc3cc2c1` has an EC50 of 5270 nM.
`O=C(NCc1ccco1)c1ccc([N+](=O)[O-])o1` gave an EC50 of 6890 nM.
`Cc1ccc(S(=O)(=O)/N=C(/NC(=S)Nc2ccccc2)c2ccccc2)cc1` gave an EC50 of 23500 nM.
For `Cc1ccc(-c2noc(-c3ccccc3Br)n2)cc1`, the EC50 was 1830 nM.
Compound `CC(C)N=C1NN=C(c2ccc(Cl)c(Cl)c2)CS1` has an EC50 of 1420 nM.
For `COc1ccc(-n2ncc3c(NCC(C)C)ncnc32)cc1`, the EC50 was 1190 nM.
Work on `N/C(=N\OC(=O)c1ccc(Cl)cc1Cl)c1cccnc1` yielded an EC50 of 2100 nM.
For `Oc1sc(C=Nc2ccccc2)c2ccccc12`, the EC50 was 10500 nM.
`Cc1ccc(-c2nc3ccccc3[nH]2)cc1N` gave an EC50 of 3410 nM.
Compound `COCCOCCn1c(/C=C/c2ccccc2)nc2ccccc21` has an EC50 of 5780 nM.
For `O=C(Nc1ccc2c(c1)OCCO2)c1cc2ccccc2o1`, the EC50 was 1120 nM.
`COC(=O)CSc1nc2cc(OC)ccc2cc1C#N` showed an EC50 of 295 nM.
In the case of `COc1ccc(-c2cc(-c3cc(C)ccc3O)[nH]n2)cc1`, the EC50 is reported as 16000 nM.
`Cc1ccc(N2Cc3ccccc3C2=S)cc1` gave an EC50 of 5150 nM.
Work on `O=C(Nc1ccc(N2CCOCC2)c(Cl)c1)c1cccc(F)c1` yielded an EC50 of 8600 nM.
In the case of `O=C(O)c1cccc(COc2ccccc2Cl)c1`, the EC50 is reported as 1350 nM.
Work on `O=C(N=Nc1c(O)[nH]c2ccccc12)c1cccs1` yielded an EC50 of 1480 nM.
`CCOC(=O)c1sc2nc(-c3cccnc3)ccc2c1N` showed an EC50 of 1350 nM.
`Cc1cc2nc(-c3ccc(SCC(=O)Nc4ccc(S(=O)(=O)NC5CC5)cc4)nc3)[nH]c2cc1C` gave an EC50 of 907 nM.
In the case of `O=C(Nc1ccc2c(c1)OCO2)c1noc2c1CCCCC2`, the EC50 is reported as 1130 nM.
For `CCc1ccc(NC(=O)c2cc(C)on2)cc1`, the EC50 was 2860 nM.
Work on `CCCCCCCOc1ccc(OC(=O)c2ccncc2)cc1` yielded an EC50 of 107 nM.
With `Cc1ccc(N=Cc2sc(O)c3ccccc23)cc1` the EC50 was 1730 nM.
For `O=C(Nc1ccccc1)c1cc2ccccc2o1`, the EC50 was 1240 nM.
Work on `Cc1ccc(-c2nnc(SCc3ccccc3F)o2)cc1` yielded an EC50 of 4630 nM.
With `CN(C)C(=O)Oc1ccc(-c2cn3cc(Cl)ccc3n2)cc1` the EC50 was 3220 nM.
`COc1ccc2nc(Nc3ccccc3)sc2c1` showed an EC50 of 11100 nM.
`CCN(CC)c1ccc(NC(=O)c2ccco2)cc1` showed an EC50 of 2500 nM.
In the case of `O=C(Nc1nc2ccccc2[nH]1)c1cc2ccccc2o1`, the EC50 is reported as 1230 nM.
Compound `O=C(NC1=NCCS1)c1sc2ccccc2c1Cl` has an EC50 of 5760 nM.
For `Fc1ccc(-c2cn3cc(C(F)(F)F)cc(Cl)c3n2)cc1`, the EC50 was 4450 nM.
`NC(=O)c1ccccc1N/C=C/C(=O)c1ccc(Cl)cc1Cl` showed an EC50 of 1250 nM.
Compound `CS(=O)(=O)N1N=C(c2ccc(Br)cc2)CC1c1ccc2c(c1)OCO2` (stereo unspecified) has an EC50 of 2680 nM.
`O=C(O)c1cccc(N/N=C/c2cccs2)c1` showed an EC50 of 1310 nM.
`COc1ccc(-c2cn3ccsc3n2)cc1` showed an EC50 of 12500 nM.
`Cn1c(C(=O)Nc2ccc3c(c2)OCCO3)cc2sccc21` showed an EC50 of 1170 nM.
Compound `CCOC(=O)c1cnc(Nc2nc3ccccc3o2)nc1CSC(=S)N(CC)CC` has an EC50 of 2320 nM.
Work on `Nc1ccc(-c2nc3cc(N)ccc3s2)cc1` yielded an EC50 of 1100 nM.
`CC(=O)c1ccc(NC(=O)/C(Cl)=C/c2ccccc2)cc1` gave an EC50 of 4310 nM.
Compound `Cc1ccc(NC(=S)N2CCC(c3ccccc3)C2)c(Cl)c1` (stereo unspecified) has an EC50 of 1800 nM.
For `Cc1ccc(NC(=O)c2cc3c(s2)CCCC3)cc1`, the EC50 was 10400 nM.
`COc1ccc(C(=O)Nc2cc(OC)nc(OC)n2)cc1` gave an EC50 of 12000 nM.
Compound `O=C(NC1=NCCS1)c1csc2ccccc12` has an EC50 of 17300 nM.
For `Nc1cccc(-c2nc3ccccc3s2)c1`, the EC50 was 1410 nM.
With `Cc1ccc(NC(=O)c2noc3c2CCC3)cc1C` the EC50 was 3120 nM.
For `Oc1ccccc1-c1cc(-c2ccccc2)no1`, the EC50 was 1780 nM.
For `Oc1ccccc1-c1cc(-c2cccc(F)c2)n[nH]1`, the EC50 was 7730 nM.
`COc1cccc(CNc2cnc3ccccc3c2)c1O` gave an EC50 of 13900 nM.
For `c1ccc2c(c1)CCN(c1nc3cc4c(cc3s1)OCO4)C2`, the EC50 was 524 nM.
`O=C(OCC(=O)c1c[nH]c2ccccc12)c1cccc(O)c1` gave an EC50 of 14600 nM.
In the case of `Cc1nn(-c2nc3ccccc3s2)c(N)c1-c1ccccc1`, the EC50 is reported as 9750 nM.
`C/C(=N\Nc1cccc2cccnc12)c1ccccc1O` showed an EC50 of 1010 nM.
Compound `CCN(CC)c1ccc(NC(=O)c2ccccc2F)cc1` has an EC50 of 7390 nM.
With `Cc1ccc(Cc2cnc(NC(=O)c3ccco3)s2)cc1` the EC50 was 1340 nM.
Work on `O=C(Nc1nc2ccc(F)cc2s1)c1cccs1` yielded an EC50 of 4570 nM.
With `Cc1ccc(C(=O)c2cc([N+](=O)[O-])ccc2N2CCOCC2)c(C)c1` the EC50 was 3030 nM.
With `Cn1c(C(=O)Nc2ccc3c(c2)OCO3)cc2sccc21` the EC50 was 5240 nM.
For `Clc1ccc(-c2nnc(SCc3ccon3)o2)c(Cl)c1`, the EC50 was 1060 nM.
Work on `NC(=O)c1ccc(-c2ncc(-c3ccccc3)o2)cc1` yielded an EC50 of 403 nM.
With `Cc1ccnc(NS(=O)(=O)c2ccc(NC(=O)c3ccc([N+](=O)[O-])s3)cc2)n1` the EC50 was 5770 nM.
`COc1ccc(-c2csc(N3C(=O)CNC3=S)n2)cc1` gave an EC50 of 935 nM.
`Cc1ccc(NCc2nc3ccccc3n2C)cc1` showed an EC50 of 3360 nM.
Work on `CCCOc1ccc(C(=O)NCCc2ccccc2)cc1` yielded an EC50 of 648 nM.
Work on `O=C(c1cnn(-c2ccc(Cl)cc2)c1)c1ccccc1O` yielded an EC50 of 1720 nM.
For `NC(=O)c1ccccc1N/C=C/C(=O)c1cccs1`, the EC50 was 4950 nM.
With `Nc1cccn2c(-c3ccc(Cl)c(Cl)c3)cnc12` the EC50 was 2680 nM.
With `CCOC(=O)CSc1nc2cc(C)ccc2cc1C#N` the EC50 was 1100 nM.
Compound `O=C1CC(c2ccco2)CC2=C1C1c3ccccc3C(=O)N1c1ccccc1N2` (stereo unspecified) has an EC50 of 3070 nM.
Work on `CCOC(=O)c1cnc2c(-c3ccccc3)cnn2c1C` yielded an EC50 of 7520 nM.
Work on `COc1ccc(/C=N/Nc2ncccc2[N+](=O)[O-])c(OC)c1` yielded an EC50 of 3350 nM.
`O=C(Nc1ccc2c(c1)CCC2)c1ccccc1` gave an EC50 of 1840 nM.
Work on `O=C(CCCc1ccccc1)N1CCc2ccccc21` yielded an EC50 of 2570 nM.
Work on `O=C(NCc1cccnc1)c1ccc([N+](=O)[O-])o1` yielded an EC50 of 2810 nM.
In the case of `Cc1cc(C(=O)Nc2nc3c(s2)CCCC3)cs1`, the EC50 is reported as 1630 nM.
For `N/C(=N\N=C\c1cccc(O)c1)c1nonc1N`, the EC50 was 3310 nM.
In the case of `CC(C)N=c1scc(-c2ccco2)n1/N=C/c1ccc(O)c(O)c1`, the EC50 is reported as 6500 nM.
For `O=S1(=O)N=C(Nc2nc3c(s2)CCCC3)c2ccccc21`, the EC50 was 21800 nM.
`CCOC(=O)c1cnc(SCc2ccccc2)nc1N` gave an EC50 of 8920 nM.
Work on `O=C(Oc1c(CN2CCOCC2)cc(Cl)c2cccnc12)c1ccc(F)cc1` yielded an EC50 of 13100 nM.
For `CC1CCN(c2nc3ccc(C(=O)O)cc3s2)CC1`, the EC50 was 389 nM.
